Series [1] relates to other CYP isoforms (CYP1A2, 2A6, 2B6, 2C8, 2C9, 2E1). Kind of series: Reaction phenotyping with other recombinant CYP isoforms. The format is in vitro ADME, human. As to conditions: 1 µM, 50 pmol/mL of each other recombinant CYP isoform, NADPH, 60 min. As to the method:
(§1) Reactions were conducted in triplicate using 0.1 M PPB (pH 7.4) in eight-well tube strips in an 8 × 12 rack. […] The mixture was pre-incubated at 37°C with shaking at approximately 100 rpm for 5 min. Reactions were initiated by the addition of the NADPH-regenerating system and quenched with 200 µL ice-cold acetonitrile containing 50 nM CBZ. The samples were centrifuged at 1,000 × g and 4°C for 20 min, and the supernatants were subjected to LC-QTOF HRMS. […] The reaction was incubated, initiated, terminated, centrifuged then analyzed using the same method described above.
(§2) Reaction phenotyping is the identification of isoforms involved in drug metabolism and is important for the decipherment of drug biotransformation pathways and understanding of possible drug-drug interactions. M6, M7, and M8 were also detected in recombinant CYP incubations.

The next series can be described thus: in vitro. The format is in vitro ADME, human. On the procedure: (§3) Metabolic stability of GRL 0617 and formation of M1 and M3 were evaluated using Silensome control, Silensome CYP2D6 and Silensome CYP3A4 incubated with 1 or 10 µM GRL 0617 in the presence of NADPH. Other metabolites were detected less than 1% of parent. […] CYP2D6 played an exclusive role in the formation of M2, but the reactions were not saturated in the concentration range used in this study and thus, the calculated Kcat, and Km were out of the experiment condition.
(§4) In addition, the contribution of specific isoform using Silensomes were evaluated, and calculated parameters were shown in Supplemental Figure S4 and Table 4. […] The contribution of specific CYP 3A4 or CYP2D6 was calculated to be 79.6% or 21.8%, respectively, using equation as equation below. Calculated % CYP isoform contribution = CLintcontrol−ClintINH ⁄ CLintcontrol ([Bohnert et al., 2016]).
(§5) incubated in Silensome control, Silensome CYP2D6, and Silensome CYP3A4 with NADPH for 0, 10,
(§6) 15, 30, 45, 60, or 120 min. The remaining percentages of GRL 0617 are expressed as mean ± SD (n=3).
(§7) (1 picture or pasted object on this page, not shown here)

Series [2] concerns CYP2D6. Kind of series: Metabolic stability in Silensome CYP2D6 (CYP2D6 contribution). The format is in vitro ADME, human. As to conditions: human. On the procedure:
as §3, §4, §5, §6, §7

Another series relates to Silensome CYP2D6. The series is described as above. The format is in vitro ADME, human. As to conditions: (CLint control − CLint INH)/CLint control. On the procedure:
as §3, §4, §5, §6, §7

A further series deals with CYP3A4/3A5. Kind of series: Metabolic stability in Silensome CYP3A4 (CYP3A4/3A5 contribution). The format is in vitro ADME, human. As to conditions: human. As to the method:
as §3, §4
(§8) CYP3A4/5 metabolizes various chemicals composed of large, lipophilic molecules with diverse structures, and >50% of all prescribed drugs undergo CYP3A4 metabolism ([Zanger and Schwab, 2013]). CYP3A4-related drug interaction studies are critical for the prediction of drug–drug interactions in the clinic ([Prueksaritanont et al., 2013]). […] Thus, Silensome 3A4 represented contribution of both CYP3A4 and CYP3A5, compared with control Silensome. CYP3A5 expression in the liver differs between Africans/African Americans and Caucasians. […] CYP2D6 is a highly polymorphic gene involved in drug metabolism ([Ingelman-Sundberg et al., 2007]). […] Indeed, CYP2D6 metabolized the naphthalene side ring through hydroxylation, which is not linked to M1–M3 dehydration.
as §5, §6, §7

A further series concerns Silensome CYP3A4/3A5. The series is described as above. As to conditions: (CLint control − CLint INH)/CLint control. The format is in vitro ADME, human. As to the method:
as §3, §4, §8, §5, §6, §7

The target in series [3] is T1, CYP2D6 (Homo sapiens, UniProt P10635). The settings on record: pooled HLMs, substrate cocktail. On the procedure:
(§9) The drug–drug interaction potential was evaluated using a CYP cocktail assay that involved microsomal incubation and NADPH, as described elsewhere ([Lee et al., 2012]). […] The first reactions were initiated by NADPH addition, and each mixture was incubated in a shaking water bath at 37°C for 30 min. The final incubation was performed for 10 min with a total volume of 200 µL by adding substrates (tolbutamide (set B) as a CYP2C9 selective substrate, midazolam (set A) and testosterone (set B) as CYP3A4 selective substrates) and NADPH. The reaction was stopped and quenched by adding 200 µL of ice-cold acetonitrile containing 50 nM CBZ as internal standard, then centrifuged at 3,000 x g for 20 min. The supernatants were injected in LC-QTOF system. IC50 shift values were calculated as the ratio of the IC50 value obtained after pre-incubation without NADPH divided by the IC50 value obtained after 30 min incubation with NADPH.
(§10) The LC-QTOF system consisted of an Exion AD LC device (AB Sciex, Framingham, MA, United States) and a TripleTOF 6,600 + system (AB Sciex) equipped with an IonDrive Turbo V source operated in positive TOF information-dependent acquisition (IDA) MS2 scan mode. The TOF scan dwell time was 50 ms, and the 20 × IDA MS2 scan time was acquired with a 30-ms dwell time. […]

For the next series, the target named is CYP2E1 (Homo sapiens, UniProt P05181). Kind of series: CYP cocktail inhibition assay in pooled HLMs, CYP2E1. As to conditions: substrate cocktail. As to the method:
as §9, §10

The target in series [4] is T1, CYP2D6. The format is in vitro ADME. On the set-up: purchased Cypex (Dundee, UK); host or cells: bactosomes (bacterial membranes). The settings on record: 1 µM, 50 pmol/mL recombinant CYP2D6, NADPH, 60 min, vs control. On the procedure:
as §1, §2

SMILES strings stand for the structures.

Broadly, the half-life is the time needed for the level to fall by half in the phase considered. Low values mean fast loss, high ones slow loss.

T1 sequence (P10635 whole entry): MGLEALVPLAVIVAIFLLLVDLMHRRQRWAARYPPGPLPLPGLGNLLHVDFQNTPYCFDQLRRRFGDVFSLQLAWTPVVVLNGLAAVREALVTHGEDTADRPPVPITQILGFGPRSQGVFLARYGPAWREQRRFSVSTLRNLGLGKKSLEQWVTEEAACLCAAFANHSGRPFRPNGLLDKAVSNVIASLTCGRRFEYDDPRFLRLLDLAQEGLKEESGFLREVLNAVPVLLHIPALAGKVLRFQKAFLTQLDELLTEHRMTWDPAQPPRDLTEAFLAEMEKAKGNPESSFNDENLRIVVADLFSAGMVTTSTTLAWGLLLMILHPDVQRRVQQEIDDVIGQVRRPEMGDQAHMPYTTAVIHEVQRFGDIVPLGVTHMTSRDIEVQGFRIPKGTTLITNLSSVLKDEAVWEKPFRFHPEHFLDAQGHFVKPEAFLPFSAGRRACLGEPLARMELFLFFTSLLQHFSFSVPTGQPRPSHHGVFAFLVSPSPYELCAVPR
Sequence of CYP2E1 (P05181 whole entry): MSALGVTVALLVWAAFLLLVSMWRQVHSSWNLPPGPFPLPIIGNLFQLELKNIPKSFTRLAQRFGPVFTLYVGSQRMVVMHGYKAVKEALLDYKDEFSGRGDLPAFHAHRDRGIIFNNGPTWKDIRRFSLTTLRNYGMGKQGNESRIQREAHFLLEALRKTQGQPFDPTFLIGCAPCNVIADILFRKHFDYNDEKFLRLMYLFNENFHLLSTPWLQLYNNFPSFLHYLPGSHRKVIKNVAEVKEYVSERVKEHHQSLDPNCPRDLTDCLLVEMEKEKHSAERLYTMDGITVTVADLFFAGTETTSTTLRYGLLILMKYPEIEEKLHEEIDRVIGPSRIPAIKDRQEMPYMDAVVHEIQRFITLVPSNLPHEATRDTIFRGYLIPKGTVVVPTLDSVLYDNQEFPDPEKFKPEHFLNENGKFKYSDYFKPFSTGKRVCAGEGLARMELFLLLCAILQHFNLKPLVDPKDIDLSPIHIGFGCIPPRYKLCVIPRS

Take `Cc1ccc(N)cc1C(=O)N[C@H](C)c1cccc2ccccc12` [GRL0617, 5-amino-2-methyl-N-[(1R)-1-(1-naphthalenyl)ethyl]benzamide]: in series [1], the “Reduction of GRL0617 level” value was under 10%. Moreover, the Contribution in “in vitro” (Silensome control (reference)) came out at 100%. Further, the half-life at 1 µM in the series “in vitro” (human, microsomes) stood at 17.4 min; in the series on CYP2D6 [2], 22.3 min; in the series on CYP3A4/3A5, 85.1 min. Besides, the microsomal CLint in the series “in vitro” (human, microsomes, Silensome control with NADPH, read-out: Intrinsic clearance (in vitro) Clint) was found to be 39.8 µL/min/mg. For the same molecule, the microsomal CLint at 1 µM worked out at 31.2 µL/min/mg in the series on CYP2D6 [2] (Silensome CYP2D6 with NADPH, read-out: Intrinsic clearance (in vitro) Clint) and 8.14 µL/min/mg in the series on CYP3A4/3A5 (Silensome CYP3A4/3A5 with NADPH, read-out: Intrinsic clearance (in vitro) Clint). Moreover, in the series with Silensome CYP2D6, the “Contribution of CYP2D6 to metabolism” value worked out at 21.8%. The “Contribution of CYP3A4 (CYP3A4/3A5) to metabolism” value with Silensome CYP3A4/3A5 was 79.6%. The “Concentrations at which CYP2D6 was inhibited” value at CYP2D6 [3] was at least 50 µM. Also, the “Concentrations at which CYP2E1 was inhibited” value at CYP2E1 was at least 50 µM. Besides, the GRL0617 level remaining on CYP2D6 [4] is given as 71.46% ± 3.1%.

Source of the values: article PMC9975351 (Frontiers in Pharmacology, 2023).
